Converted amounts (≈) assume the structure as drawn.
Legend:
[1] = tested on: phosphatidylcholine-specific phospholipase C (PC-PLC); details: Gonzalez-Roura et al.; comparison between diastereomers; cited from earlier work
[2] = tested on: bovine papilloma virus type I (BPV-1)-transformed HEF (HEF-BPV); experiment: Inhibition of bovine papilloma virus, BPV-infected hamster embryo fibroblasts (HEF) cell proliferation assay; type: cell-based; details: Bos taurus papillomavirus 1, HEF, 72 h, pH 6.8, HEF-BPV, 37° C., read-out: IC50
Description: Briefly, hamster embryo fibroblasts and bovine papilloma virus type I (BPV-1)-transformed HEF (HEF-BPV) were grown in Eagle's basal medium. […] and HEF cells were seeded in 96-well plates at a density of 0.5×10^6 cells per plate in DMEM cell culture medium containing 10% fetal calf serum at pH 6.8. The plates were then incubated in the presence of 5% CO2 in 100% humidity at 37° C. After 6 hr, the cell culture medium in the plates was exchanged with fresh DMEM cell culture medium containing test compounds at a series of concentrations. The plates were incubated at 37° C. for additional 72 hr. Cells in the plates were then washed with PBS, fixed with 3% formaldehyde solution containing 0.9% NaCl for 1 min, washed by water for 10 sec, and dried overnight. For detection, the plates were stained with crystal violet solution for 5 min at room temperature, washed 5 times with water, and dried at room temperature overnight. After adding ethanol/acetic acid (99:1, v/v, […]) to each well, the plates were measured at 595 nm using an ELISA reader.

[3] = target: T1, B. cereus PC-PLC (phosphatidylcholine-specific phospholipase C) (Bacillus cereus, UniProt P09598); experiment: Inhibition of phosphatidylcholine-specific phospholipase C (Amplex Red PC-PLC assay kit); type: biochemical; details: 30 min at 37° C., 0.2 U/mL PC-PLC solution, triplicate
T1 construct: purchased Invitrogen
T1 sequence (P09598 39-283 limits assumed): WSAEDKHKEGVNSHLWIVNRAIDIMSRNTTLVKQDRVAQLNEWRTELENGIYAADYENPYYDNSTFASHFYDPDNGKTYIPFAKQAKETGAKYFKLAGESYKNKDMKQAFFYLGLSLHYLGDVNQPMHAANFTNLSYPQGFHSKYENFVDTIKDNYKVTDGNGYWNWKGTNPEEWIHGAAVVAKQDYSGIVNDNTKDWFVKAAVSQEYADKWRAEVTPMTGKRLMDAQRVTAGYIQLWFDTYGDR
Description: (§1) The inhibitory activities of optically active potassium salts of (+)- and (−)-O-exo/C-exo-tricyclo [5.2.1.0^2,6]-dec-9-yl-xanthic acid 1A ((+)- and (−)-enantiomers 1A) against phosphatidylcholine-specific phospholipase C were evaluated, together with D609 and potassium salt of racemic O-exo/C-exo xanthic acid 1A (racemic 1A), using Amplex Red phosphatidylcholine-specific phospholipase C(PC-PLC) assay kit, which was obtained from Invitrogen (Calsbad, Calif.). D609 was obtained from Sigma Aldrich.
(§2) An Amplex Red stock solution (˜20 mM), a working reaction buffer, and a horseradish peroxidase stock solution (200 U/mL), a H2O2 working solution (20 mM), a choline oxidate stock solution (20 U/mL), an alkaline phosphatase stock solution (400 U/mL), and a B. cereus PC-PLC stock solution (10 U/mL) were prepared according to the instruction of the assay kit. The stock solution (100 mg/mL) for each test compound was also prepared by dissolving the compound in water 2 hr prior to the start of the experiment.
(§3) A working Amplex Red/HRP/lecithin solution was prepared by adding 200 μL of Amplex Red reagent stock solution, 100 μL of HRP stock solution, 200 μL of alkaline phosphatase stock solution, 100 μL of choline oxidase stock solution, and 78 μL of the lecithin solution to […] of the working reaction buffer. PC-PLC solution (0.2 U/mL) was prepared by diluting the PC-PLC stock solution with the working reaction buffer to the desired concentration.
The test compound (25 μL) at a serious of concentrations was pipetted into a 96 well plate. For uninhibited PC-PLC controls and non-PC-PLC controls, 25 μL of water was added. After the addition of 50 μL of the Amplex Red/HRP/lecithin working solution, the reaction was initiated by adding 25 μL of PC-PLC solution to each well. […] After incubated for 30 min at 37° C., the reactions were measured with a fluorescence microplate reader using excitation at 550 nm and emission detection at 590 nm. The fluorescent data obtained were corrected for background fluorescence by subtracting the values obtained from the non-PC-PLC controls.

[4] = tested on: Herpes simplex virus type-2 (HSV-2); experiment: Inhibition of HSV-2 (plaque assay; Calu-6 infected, RITA cells for plaques); type: cell-based
Description: (§4) Calu-6 cells and RITA cells were grown in DMEM cell culture medium containing 10% fetal calf serum in CO2 incubator under 5% CO2 at 37° C. with 100% humidity.
(§5) For HSV-2 inhibition, Calu-6 cells were seeded in 96 well plates at a density of 3×10^6 cells per plate in the DMEM cell culture medium. The plates were incubated at 37° C. in the presence of 5% CO2 for 24 hr. The DMEM cell culture medium in the plates was removed and the cells were infected with Herpes simplex virus type-2 at 50 plaque forming units per well. After incubation at 37° C. for 60 min, test compounds in DMEM cell culture medium at a series of concentrations were added. The plates were incubated at 37° C. in the presence of 5% CO2 for 48 hr. The plates were frozen at −20° C. prior to further analysis. After thawing at room temperature, supernatants containing infectious virus particles were prepared by centrifuging the supernatant from each well at 18,000 g at 4° C. for 5 min. The supernatant was further diluted before assay.
RITA cells were seeded in 24 well Linbra plates at a density of 4×10^6 cells per plate in 2 mL of DMEM cell culture medium. The plates were incubated at 37° C. in the presence of 5% CO2 for 24 hr. After the removal of the cell culture medium, 0.1 mL of the diluted supernatants was added and the plates were incubated at 37 C for 1 hr. DMEM cell medium containing 10% fetal calf serum and 0.5% methyl cellulose was added and the plates were incubated at 37 for 48 hr. The plates were then washed with PBS, fixed with 3% formaldehyde solution containing 0.9% NaCl for 1 min, washed by water for 10 sec, and dried overnight. For detection, the plates were then stained with crystal violet solution for 5 min at room temperature, washed 5 times with water, and dried at room temperature overnight. The number of plaques was determined macroscopically. The number of plaques per well was then multiplied with the dilution factor. Dose response curves were obtained by plotting the number of plaques/0.1 mL against compound concentration. The therapeutic index was also calculated for each compound by dividing LD50 with IC50.

[5] = target: T2, phosphatidylcholine-specific phospholipase C (PC-PLC) (Bacillus cereus, UniProt P09598); experiment: Amplex Red phosphatidylcholine-specific phospholipase C (PC-PLC) inhibition assay; type: biochemical, B. cereus; details: 30 min at 37° C., triplicate
T2 construct: purchased Invitrogen
T2 sequence (P09598 39-283 limits assumed): as above
Description: as §1, §2, §3
The test compound (25 μL) at a serious of concentrations was pipetted into a 96 well plate. For uninhibited PC-PLC controls and non-PC-PLC controls, 25 μL of water was added. After the addition of 50 μL of the Amplex Red/HRP/lecithin working solution, the reaction was initiated by adding 25 μL of PC-PLC solution to each well. To the non-PC-PLC controls, 25 μL of water was added instead of PC-PLC solution. The experiment was performed in triplicate. The reactions were protected from light. After incubated for 30 min at 37° C., the reactions were measured with a fluorescence microplate reader using excitation at 550 nm and emission detection at 590 nm. The fluorescent data obtained were corrected for background fluorescence by subtracting the values obtained from the non-PC-PLC controls.

Calu-6 cells = experiment: Cytotoxicity assay in Calu-6 cells (crystal violet); type: cell-based; details: 48 hr
Description: as §4
For cytotoxicity assay, Calu-6 cells were seeded in 96 well plates at a density of 3×10^6 cells per plate in the DMEM cell culture medium. The plates were incubated at 37° C. in the presence of 5% CO2 for 24 hr. The DMEM cell culture medium in the plates was exchanged with fresh DMEM cell culture medium containing test compounds at a series of concentrations. The plates were incubated at 37° C. in the presence of 5% CO2 for 48 hr. The plates were then washed with PBS, fixed with 3% formaldehyde solution containing 0.9% NaCl for 1 min, washed by water for 10 sec, and dried overnight. For detection, the plates were stained with crystal violet solution for 5 min at room temperature, washed 5 times with water, and dried at room temperature overnight. After adding ethanol/acetic acid (99:1, v/v, […]) to each well, the plates were measured at 595 nm using an ELISA reader. A dose response curve was obtained for each compound tested by plotting the mean values of the optical densities against compound concentration.

[6] = tested on: herpes simplex virus type 2; experiment: HSV-2 inhibition in Calu-6 cells, plaque titration on RITA cells; type: cell-based; details: Human alphaherpesvirus 2, Calu-6; 48 hr, 50 plaque forming units per well
Description: as §4, §5
RITA cells were seeded in 24 well Linbra plates at a density of 4×10^6 cells per plate in 2 mL of DMEM cell culture medium. The plates were incubated at 37° C. in the presence of 5% CO2 for 24 hr. […] The number of plaques was determined macroscopically. […] The therapeutic index was also calculated for each compound by dividing LD50 with IC50.

[7] = tested on: HPV-31-infected CIN612 9E keratinocytes; experiment: Long-term study: cell proliferation and morphology of CIN612 9E cells over 9 passages; type: cell-based; details: 200 IU/mL
Description: (§6) HPV-31 infected cells (3×10^6) were dispensed into 14.5 cm dishes containing fresh E medium and 1×10^6 cells of mitomycin C-treated 3T3 fibroblast feeders. The dishes were incubated in a CO2 incubator under 5% CO2 at 37° C. in 100% humidity. Human A431 epithelial cancer cells were used as HPV-uninfected negative controls. After 6 hr incubation, the cell culture medium was removed and fresh E medium containing 0.85 g/L NaHCO3 and a test compound at concentrations of 10 and 3.3 μg/mL, or control (interferon γ at 200 IU/mL) were added. For each concentration, 4 dishes were prepared. The dishes were incubated at 37° C. in a CO2 incubator. The culture medium was replaced to new E medium containing each concentration of the test compound or control in every 72 hrs. After seven days, or when untreated cells became confluent, one dish of each group was harvested for DNA/RNA extraction, followed by Southern/Northern Blot analysis; and one dish was trypsinized, cell number were determined and cells were seeded in three new dishes, treated and cultured as described above. This procedure was repeated for 9 passages. During these passages, morphology of cells and cell density were monitored.
Effect on cell proliferation. Cell numbers in the dishes harvested were determined in a Neubauer hematocytometer. The multiplication factor was determined at every step of passage. The cell number of each culture at the end of the passage was divided by the number of seeded cells at the start of each passage. The end point was reached when keratinocytes treated with a test compound stopped growing. Stop of cell growth was defined as a multiplication factor of no greater than 1.

HPV-31 specific DNA = experiment: Long-term study: HPV-31 specific DNA level (Southern blot); type: cell-based, human papilloma virus; details: at 200 IU/mL
Description: as §6
(§7) Effect on HPV-31 specific DNA and RNA: DNA and RNA were analyzed in Southern and Northern Blot gels for HPV-31 specific sequences. X-ray films were scanned and optical densities of HPV-31 specific DNA and major mRNA species were integrated. Time curves were established by plotting integrated values against number of passages for each treatment dose. The T50 (time required to reduce the level to 50% of control) was determined from the time curves from crossing points of time curves with a line parallel to the x-axis corresponding to 50% of integrals of untreated control sample.

HPV-31 specific RNA = experiment: Long-term study: HPV-31 specific RNA level (Northern blot); type: cell-based, human papilloma virus; details: at 200 IU/mL
Description: as §6, §7

[8] = tested on: HPV-31-infected CIN612 9E keratinocytes; experiment: Short-term study: growth of HPV-31-infected CIN612 9E keratinocytes (crystal violet); type: cell-based; details: at 200 UI/mL, 72 hrs
Description: The inhibitory activities of optically active (−)-enantiomer 1A against human papilloma virus were evaluated using HPV-31-infected CIN612 9E keratinocytes (Meyers et al., Science 1992, 257, 971-973).
Effect on cell proliferation. HPV-31 infected cells were seeded in 96-well plates containing 1×10^6 mitomycin C treated 3T3 cells (1×10^4 cells/well), at a density of 0.5×10^6 cells per plate (0.5×10^4 cells/well) in E medium. After the plates were incubated in a CO2 incubator under 5% CO2 at 37° C. in 100% humidity for six hrs, the cell culture medium was removed and fresh E medium containing 0.85 g/L NaHCO3 and a test compound at a series of concentrations (0, 0.5, 1, 2, 4, 8, 16, 32, 64, and 128 μg/mL), or positive control (interferon γ at 200 IU/mL) was added. […] After the plates were dried on blotting paper upside down overnight, 0.1 mL of ethanol/acetic acid (99:1) was added to each well and optical density at 595 nm was determined in an ELISA reader.
Dose response curves were established by plotting growth against concentrations of the test compound or control. ICso values were determined from the dose response curves from crossing points of the dose response curves with a line parallel to the x-axis corresponding to 50% of uninhibited growth.

## S=C(S)OC1CC2CC1C1CCCC21 (racemic) [Racemic 1A, racemic O-exo/C-exo-tricyclo[5.2.1.0^2,6]-dec-9-yl-xanthic acid]
[1]
  inhibitory activities against PC-specific phospholipase C: no significant differences

## S=C(S)OC1CC2CC1C1CCCC21 (single isomer, unassigned; (+)) [(+)-Enantiomer 1A, (+)-O-exo/C-exo-tricyclo[5.2.1.0^2,6]-dec-9-yl-xanthic acid]
[2]
  IC50: 19.9 ± 2.52 µg/mL (≈ 87.1 µM)
[3]
  IC50: 60.8 µM
[4]; Calu-6 cells, 48 hr, 50 plaque forming units per well
  IC50: 20.97 ± 4.06 µg/mL (≈ 91.8 µM)
[4]; LD50 (Calu-6) divided by IC50 (HSV-2), 2880 min
  Therapeutic Index: 3.9

## S=C(S)OC1CC2CC1C1CCCC21 (single isomer, unassigned; enantiomer 1a) [(+)-Enantiomer 1A, (+)-O-exo/C-exo-tricyclo[5.2.1.0^2,6]-dec-9-yl-xanthic acid 1A]
[5]
  IC50: 13.88 ± 0.85 µg/mL (≈ 60.8 µM)
Calu-6 cells
  LD50: 81.29 ± 4.53 µg/mL

## Nc1nc2c(ncn2COCCO)c(=O)[nH]1 [Aciclovir, aciclovir]
[6]
  IC50: 1.21 ± 0.81 µg/mL (≈ 5.37 µM)

## S=C(S)OC1CC2CC1C1CCCC21 (stereo not drawn) [O-exo/C-endo 1B]
[1]
  inhibitory activities against PC-specific phospholipase C: no significant differences

B1: INF-γ: interferon γ, positive control at 200 IU/mL (protein, UniProt P01579 24-161, looked up)
Interferon gamma: QDPYVKEAENLKKYFNAGHSDVADNGTLFLGILKNWKEESDRKIMQSQIVSFYFKLFKNFKDDQSIQKSVETIKEDMNVKFFNSNKKKRDDFEKLTNYSVTDLNVQRKAIHELIQVMAELSPAAKTGKRKRSQMLFRG
[7]; first cell passage
  multiplication factor: 0.8
[7]; second passage
  multiplication factor: 2.4
HPV-31 specific DNA
  T50 DNA: 2.7 passages
HPV-31 specific RNA
  T50 RNA: 3.36 passages
[8]
  inhibition of the growth of HPV-31-infected CIN612 9E keratinocytes: about 50%

Source: patent publication US20100240746A1, “STEREOISOMERS OF TRICYCLODECAN-9-YL-XANTHOGENATE” (LUMAVITA AG, priority 2007, published 2010)
